Experimental findings from patent US6716851B2, “Substituted 2-aryl-4-arylaminopyrimidines and analogs as activators or caspases and inducers of apoptosis and the use thereof” (Cytovia, Inc., priority 2000, dated 2004) are described below.

One test concerns T-47D cells. Nature of the test: Caspase cascade activation (N-(Ac-DEVD)-N'-ethoxycarbonyl-R110 fluorogenic substrate) in T-47D cells. It counts as cell-based, Human. Particulars: 48 h incubation; for EC50: Homo sapiens, T47D, caspase activation potency, read-out: T47 EC50; for T47 Ratio 48 hr: caspase activity: ratio of net RFU of test compound to control. On the procedure: (§1) Human breast cancer cell lines T-47D and ZR-75-1 were grown according to media component mixtures designated by American Type Culture Collection +10% FCS (Invitrogen Corporation, Life Technologies division), in a 5% CO2-95% humidity incubator at 37° C. T-47D and ZR-75-1 cells were maintained at a cell density between 50 and 80% confluency at a cell density of 0.1 to 0.6×10^6 cells/ml. Cells were harvested at 600× g and resuspended at 0.65×10^6 cells/ml into appropriate media +10% FCS. An aliquot of […] of cells was added to a well of a […] microtiter plate containing 2.5 μl of a 10% DMSO in RPMI-1640 media solution containing 0.16 to 100 μM of 4-(3-methoxyanilino)-2-(2-pyridinyl)-6-(trifluoromethyl)pyrimidine or other test compound (0.016 to 10 μM final). An aliquot of 22.5 μl of cells was added to a well of a 384-well microtiter plate containing 2.5 μl of a 10% DMSO in RPMI-1640 media solution without test compound as the control sample. The samples were mixed by agitation and then incubated at 37° C. for 48 h in a 5% CO2-95% humidity incubator. After incubation, the samples were removed from the incubator and 25 μl of a solution containing 14 μM of N-(Ac-DEVD)-N′-ethoxycarbonyl-R110 fluorogenic substrate (Cytovia, Inc.; WO99/18856), 20% sucrose (Sigma), 20 mM DTT (Sigma), 200 mM NaCl (Sigma), 40 mM Na PIPES buffer pH 7.2 (Sigma), and 500 μg/ml lysolecithin (Calbiochem) was added. The samples were mixed by agitation and incubated at room temperature. Using a fluorescent plate reader (Model SpectraMax Gemini, Molecular Devices), an initial reading (T=0) was made approximately 1-2 min after addition of the substrate solution, employing excitation at 485 nm and emission at 530 nm, to determine the background fluorescence of the control sample. After the 3 h incubation, the samples were read for fluorescence as above (T=3 h).
(§2) The Relative Fluorescence Unit values (RFU) were used to calculate the sample readings as follows:
(§3) RFU(T=3h)−Control RFU(T=0)=Net RFU(T=3h)
(§4) The activity of caspase cascade activation was determined by the ratio of the net RFU value for 4-(3-methoxyanilino)-2-(2-pyridinyl)-6-(trifluoromethyl)pyrimidine or other test compound to that of control samples. The EC50 (nM) was determined by a sigmoidal dose-response calculation (Prism 2.0, GraphPad Software Inc.).

Another test relates to ZR-75-1 cells. In words: Caspase cascade activation (N-(Ac-DEVD)-N'-ethoxycarbonyl-R110 fluorogenic substrate) in ZR-75-1 cells. It is filed as cell-based, Human. Particulars: ZR-75-1, 48 h incubation; for EC50: Homo sapiens, caspase activation potency; for ZR Ratio 48 hr: caspase activity: ratio of net RFU of test compound to control. The procedure: as §1, §2, §3, §4

The term EC50 denotes the concentration that produces a half-maximal response.

As for `COc1cc(Nc2cc(C(F)(F)F)nc(-c3ccncc3)n2)cc(OC)c1` [Example 161, 4-(3,5-Dimethoxyanilino)-2-(4-pyridinyl)-6-trifluoromethyl-pyrimidine], in the test with T-47D cells, the EC50 was 79 nM and the “T47 Ratio 48 hr” value is 10.7. Also, in the test with ZR-75-1 cells, it took 86 nM to reach a half-maximal effect (EC50) and the “ZR Ratio 48 hr” value came out at 5.1.

With `COc1ccc(C)cc1Nc1cc(-c2ccccn2)nc(-c2ccccn2)n1.Cl` [Example 112, 4-(2-Methoxy-5-methylanilino)-2,6-di(2-pyridinyl)pyrimidine], in the test on T-47D cells, the EC50 is 1860 nM and the “T47 Ratio 48 hr” value worked out at 3.3. Besides, in the test with ZR-75-1 cells, a half-maximal effect (EC50) was put at 2370 nM and the “ZR Ratio 48 hr” value worked out at 2.9.

As for `COc1ccc(OC)c(CCNc2cc(C(F)(F)F)nc(-c3cccnc3)n2)c1` [Example 200, 4-(2,5-Dimethoxyphenylethylamino)-2-(3-pyridinyl)-6-trifluoromethylpyrimidine], in the test with T-47D cells, the EC50 was over 5000 nM and the “T47 Ratio 48 hr” value worked out at 1.2. Also, in the test on ZR-75-1 cells, the 50% effective concentration (EC50) was over 5000 nM and the “ZR Ratio 48 hr” value was found to be 1.4.

With `CCc1cccc(Nc2cc(C(F)(F)F)nc(-c3ccccn3)n2)c1` [Example 93, 4-(3-Ethylanilino)-2-(2-pyridinyl)-6-(trifluoromethyl)pyrimidine], in the test on T-47D cells, the EC50 is over 5000 nM and the “T47 Ratio 48 hr” value came to 2.0. In addition, in the test with ZR-75-1 cells, the response was half-maximal at 2030 nM (EC50) and the “ZR Ratio 48 hr” value stood at 8.2.

On to `Cl.Oc1cccc(Nc2cc(C(F)(F)F)nc(-c3cccnc3)n2)c1` [Example 97, 4-(3-Hydroxyanilino)-2-(3-pyridinyl)-6-(trifluoromethyl)pyrimidine hydrochloride], for which, in the test with T-47D cells, the EC50 is 659 nM and the “T47 Ratio 48 hr” value amounted to 14.5. Also, in the test on ZR-75-1 cells, the EC50 was determined as 717 nM and the “ZR Ratio 48 hr” value is 6.7.

In the case of `COc1ccc(C)c(Nc2cc(C)nc(-c3ccccn3)n2)c1` [Example 53, 4-(5-Methoxy-2-methylanilino)-6-methyl-2-(2-pyridinyl)pyrimidine], in the test on T-47D cells, the EC50 is 115 nM and the “T47 Ratio 48 hr” value is 20.4. Further, in the test on ZR-75-1 cells, the EC50 amounted to 599 nM and the “ZR Ratio 48 hr” value is given as 6.6.

For `Cc1cc(Nc2cc(C(F)(F)F)nc(-c3cnccn3)n2)c(C)cc1O.Cl` [Example 148, 4-(2,5-Dimethyl-4-hydroxyanilino)-(2-pyrazinyl)-6-(trifluoromethyl)pyrimidine hydrochloride], in the test with T-47D cells, the EC50 was 412 nM and the “T47 Ratio 48 hr” value is 13.8. In the test with ZR-75-1 cells, a half-maximal response (EC50) required 243 nM and the “ZR Ratio 48 hr” value was found to be 8.4.

In the case of `COc1ccc(C)c(Nc2cc(C(F)(F)F)nc(-c3cccnc3)n2)c1` [Example 51, 4-(5-Methoxy-2-methylanilino)-2-(3-pyridinyl)-6-(trifluoromethyl)pyrimidine], in the test with T-47D cells, the EC50 was 29 nM and the “T47 Ratio 48 hr” value is 11. In addition, in the test with ZR-75-1 cells, a half-maximal response (EC50) required 56 nM and the “ZR Ratio 48 hr” value came out at 5.9.

For `FC(F)(F)c1cc(Nc2cccc(-c3ccccc3)c2)nc(-c2cccnc2)n1` [Example 60, 4-(3-Phenylanilino)-2-(3-pyridinyl)-6-(trifluoromethyl)pyrimidine], in the test with T-47D cells, the EC50 was over 5000 nM and the “T47 Ratio 48 hr” value amounted to 1.8. For the same molecule, in the test with ZR-75-1 cells, the concentration for a half-maximal effect (EC50) was over 5000 nM and the “ZR Ratio 48 hr” value was 1.4.

Consider `O=C(Nc1ccccc1)c1cccc(Nc2cc(C(F)(F)F)nc(-c3cccnc3)n2)c1` [Example 66, 4-[3-(N-phenylamide)anilino]-2-(3-pyridinyl)-6-(trifluoromethyl)pyrimidine], for which, in the test on T-47D cells, the EC50 is over 5000 nM and the “T47 Ratio 48 hr” value was 1.2. In addition, in the test on ZR-75-1 cells, the EC50 was over 5000 nM and the “ZR Ratio 48 hr” value is given as 0.9.

On to `COc1ccc(C)c(Nc2cc(C(F)(F)F)nc(-c3ccncc3)n2)c1` [Example 55, 4-(5-Methoxy-2-methylanilino)-2-(4-pyridinyl)-6-(trifluoromethyl)pyrimidine], for which, in the test with T-47D cells, the EC50 worked out at 21 nM and the “T47 Ratio 48 hr” value was determined as 8.4. In the test with ZR-75-1 cells, the EC50 came to 18 nM and the “ZR Ratio 48 hr” value stood at 7.1.

As to `Cn1cc(Br)c(-c2cccc(Nc3cc(C(F)(F)F)nc(-c4cccnc4)n3)c2)n1` [Example 58, 4-[3-(4-Bromo-1-methyl-1H-pyrazol-3-yl)anilino]-2-(3-pyridinyl)-6-(trifluoromethyl)pyrimidine], in the test with T-47D cells, the half-maximal effective concentration (EC50) was over 5000 nM and the “T47 Ratio 48 hr” value is given as 1.5. Moreover, in the test with ZR-75-1 cells, the EC50 was over 5000 nM and the “ZR Ratio 48 hr” value came to 1.1.

Consider `COc1cccc(Nc2cc(C)nc(-c3ccccn3)n2)c1OC` [Example 22, 4-(2,3-Dimethoxyanilino)-6-methyl-2-(2-pyridinyl)pyrimidine], for which, in the test with T-47D cells, the EC50 was over 5000 nM and the “T47 Ratio 48 hr” value was 1.9. Moreover, in the test on ZR-75-1 cells, it took 6050 nM to reach a half-maximal effect (EC50) and the “ZR Ratio 48 hr” value was found to be 3.5.

With `Cc1ccc(Cl)c(Nc2cc(C(F)(F)F)nc(-c3cccnc3)n2)c1` [Example 123, 4-(2-Chloro-5-methylanilino)-2-(3-pyridinyl)-6-(trifluoromethyl)pyrimidine], in the test with T-47D cells, the EC50 was 763 nM and the “T47 Ratio 48 hr” value turned out to be 21.2. Moreover, in the test with ZR-75-1 cells, a half-maximal response (EC50) required 725 nM and the “ZR Ratio 48 hr” value is recorded as 15.8.

With `Cc1cc(Nc2c(C)cccc2C)nc(-c2ccccn2)n1` [Example 108, 4-(2,6-Dimethylanilino)-6-methyl-2-(2-pyridinyl)pyrimidine], in the test on T-47D cells, the half-maximal effective concentration (EC50) was over 5000 nM and the “T47 Ratio 48 hr” value is reported as 0.9. Moreover, in the test with ZR-75-1 cells, the concentration for a half-maximal effect (EC50) was determined as 4370 nM and the “ZR Ratio 48 hr” value is 2.4.

On to `Cc1cc(Nc2cc(C(F)(F)F)nc(-c3ccncc3)n2)c(C)cc1O` [Example 149, 4-(2,5-Dimethyl-4-hydroxyanilino)-2-(4-pyridinyl)-6-(trifluoromethyl)pyrimidine], for which, in the test with T-47D cells, the EC50 came to 75 nM and the “T47 Ratio 48 hr” value is reported as 16.0. In addition, in the test on ZR-75-1 cells, the half-maximal effective concentration (EC50) was 46 nM and the “ZR Ratio 48 hr” value was 10.0.

For `COc1cccc(N(C)c2cc(C(F)(F)F)nc(-c3ccccn3)n2)c1` [Example 160, 4-(N-Methyl-3-methoxyanilino)-2-(2-pyridinyl)-6-trifluoromethyl-pyrimidine], in the test with T-47D cells, the EC50 is over 5000 nM and the “T47 Ratio 48 hr” value is 1.0. Besides, in the test on ZR-75-1 cells, the EC50 is over 5000 nM and the “ZR Ratio 48 hr” value came to 1.4.

On to `Cc1ccc(C#N)c(Nc2cc(C(F)(F)F)nc(-c3cccnc3)n2)c1` [Example 120, 4-(2-Cyano-5-methylanilino)-2-(3-pyridinyl)-6-(trifluoromethyl)pyrimidine], for which, in the test with T-47D cells, the EC50 is 2690 nM and the “T47 Ratio 48 hr” value turned out to be 8.2. In addition, in the test on ZR-75-1 cells, the EC50 amounted to 2400 nM and the “ZR Ratio 48 hr” value was determined as 4.5.

In the case of `COc1ccc(C)cc1Nc1cc(C(F)(F)F)nc(-c2cccnc2)n1` [Example 87, 4-(2-Methoxy-5-methylanilino)-2-(3-pyridinyl)-6-(trifluoromethyl)pyrimidine], in the test with T-47D cells, the 50% effective concentration (EC50) was under 75 nM and the “T47 Ratio 48 hr” value was 19.2. For the same molecule, in the test on ZR-75-1 cells, the EC50 was under 75 nM and the “ZR Ratio 48 hr” value was 16.9.

`COCc1cc(Nc2cccc(OC)c2)nc(-c2cccc(C)c2)n1` [Example 20, 4-(3-Methoxyanilino)-6-(methoxymethyl)-2-(3-methylphenyl)pyrimidine]: in the test on T-47D cells, the half-maximal effective concentration (EC50) was over 5000 nM and the “T47 Ratio 48 hr” value came out at 1.6. In the test on ZR-75-1 cells, the EC50 was over 5000 nM and the “ZR Ratio 48 hr” value stood at 1.1.

For the molecule `COc1ccc(Nc2cc(C)nc(-c3ccccn3)n2)cc1OC` [Example 176, 4-(3,4-Dimethoxyanilino)-6-methyl-2-(2-pyridinyl)pyrimidine], in the test with T-47D cells, the EC50 stood at 149 nM and the “T47 Ratio 48 hr” value is recorded as 4.5. Moreover, in the test with ZR-75-1 cells, the EC50 was over 5000 nM and the “ZR Ratio 48 hr” value was found to be 1.9.

Consider `COc1ccc(OC)c(Nc2cc(C(F)(F)F)nc(-c3ccncc3)n2)c1` [Example 42, 4-(2,5-Dimethoxyanilino)-2-(4-pyridinyl)-6-(trifluoromethyl)pyrimidine], for which, in the test with T-47D cells, the EC50 was found to be 43 nM and the “T47 Ratio 48 hr” value was determined as 5.8. Also, in the test with ZR-75-1 cells, the concentration for a half-maximal effect (EC50) was determined as 145 nM and the “ZR Ratio 48 hr” value was found to be 2.5.
